Format in all cases: biochemical
Common to all, as to conditions: Caliper assay at 1 mM ATP

Assay [1] has as its target JAK1 (Homo sapiens (Human), UniProt P23458). Nature of the assay: JAK Caliper Enzyme Assay at 1 mM ATP (JAK1). On the procedure:
(§1) JAK Caliper Enzyme Assay at 1 mM ATP
(§2) Test article was solubilized in dimethyl sulfoxide (DMSO) to a stock concentration of 30 mM. An 11-point half log dilution series was created in DMSO with a top concentration of 600 μM. […] The compound plates were diluted 1 to 60 resulting in a top final assay compound concentration of 10 μM and a 2% DMSO concentration.
(§3) Test article and assay controls were added to a 384-well plate. Reaction mixtures contained 20 mM HEPES, pH 7.4, 10 mM magnesium chloride, 0.01% bovine serum albumin (BSA), 0.0005% Tween 20, 1 mM ATP and 1 μM peptide substrate. […] Enzyme concentrations and incubation times were optimized for each new enzyme preps and were modified slightly over time to ensure 20%-30% phosphorylation. The assays were stopped with a final concentration of 10 mM EDTA, 0.1% Coating Reagent and 100 mM HEPES, pH=7.4. The assay plates were placed on a Caliper Life Science Lab Chip 3000 (LC3000) instrument, and each well was sampled using appropriate separation conditions to measure the unphosphorylated and phosphorylated peptide.

Assay [2] concerns the target JAK3 (Homo sapiens (Human), UniProt P52333). The assay can be described thus: JAK Caliper Enzyme Assay at 1 mM ATP (JAK3). On the procedure: as §1, §2, §3
Assay [3] addresses TYK2 (Homo sapiens (Human), UniProt P29597). Nature of the assay: JAK Caliper Enzyme Assay at 1 mM ATP (TYK2). On the procedure: as §1, §2, §3
Assay [4] addresses JAK2 (Homo sapiens (Human), UniProt O60674). The assay can be described thus: JAK Caliper Enzyme Assay at 1 mM ATP (JAK2). On the procedure: as §1, §2, §3

Where a name gives a salt, the structure may show the parent alone.

Chain of JAK3 (P52333 whole entry, species assumed): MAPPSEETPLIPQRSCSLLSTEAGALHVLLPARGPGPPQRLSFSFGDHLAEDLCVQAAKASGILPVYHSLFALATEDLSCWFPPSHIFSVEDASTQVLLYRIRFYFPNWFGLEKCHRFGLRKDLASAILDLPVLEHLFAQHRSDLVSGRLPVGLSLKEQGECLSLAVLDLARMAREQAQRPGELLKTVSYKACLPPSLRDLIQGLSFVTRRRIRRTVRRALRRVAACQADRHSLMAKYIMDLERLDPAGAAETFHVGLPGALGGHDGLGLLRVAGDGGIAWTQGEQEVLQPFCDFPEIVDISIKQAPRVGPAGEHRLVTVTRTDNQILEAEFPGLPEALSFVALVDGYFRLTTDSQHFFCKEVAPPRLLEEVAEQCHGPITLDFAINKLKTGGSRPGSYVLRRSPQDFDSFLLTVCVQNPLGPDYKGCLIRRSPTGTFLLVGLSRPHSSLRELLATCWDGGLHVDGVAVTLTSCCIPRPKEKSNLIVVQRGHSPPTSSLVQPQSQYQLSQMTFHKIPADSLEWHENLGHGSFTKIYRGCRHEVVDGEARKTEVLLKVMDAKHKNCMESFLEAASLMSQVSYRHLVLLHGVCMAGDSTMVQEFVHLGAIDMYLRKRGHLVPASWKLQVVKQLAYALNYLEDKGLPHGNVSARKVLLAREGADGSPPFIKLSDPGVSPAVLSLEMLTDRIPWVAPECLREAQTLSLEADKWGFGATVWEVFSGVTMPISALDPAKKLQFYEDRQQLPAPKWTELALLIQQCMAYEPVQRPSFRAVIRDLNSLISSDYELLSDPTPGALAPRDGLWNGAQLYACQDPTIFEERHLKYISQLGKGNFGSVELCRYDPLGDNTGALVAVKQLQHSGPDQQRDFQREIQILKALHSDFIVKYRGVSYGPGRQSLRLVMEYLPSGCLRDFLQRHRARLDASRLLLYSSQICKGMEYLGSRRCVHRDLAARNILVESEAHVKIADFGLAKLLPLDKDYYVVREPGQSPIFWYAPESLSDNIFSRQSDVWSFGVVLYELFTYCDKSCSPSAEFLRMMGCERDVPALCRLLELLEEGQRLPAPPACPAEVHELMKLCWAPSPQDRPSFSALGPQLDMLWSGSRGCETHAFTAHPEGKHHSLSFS
Chain of JAK1 (P23458 whole entry, species assumed): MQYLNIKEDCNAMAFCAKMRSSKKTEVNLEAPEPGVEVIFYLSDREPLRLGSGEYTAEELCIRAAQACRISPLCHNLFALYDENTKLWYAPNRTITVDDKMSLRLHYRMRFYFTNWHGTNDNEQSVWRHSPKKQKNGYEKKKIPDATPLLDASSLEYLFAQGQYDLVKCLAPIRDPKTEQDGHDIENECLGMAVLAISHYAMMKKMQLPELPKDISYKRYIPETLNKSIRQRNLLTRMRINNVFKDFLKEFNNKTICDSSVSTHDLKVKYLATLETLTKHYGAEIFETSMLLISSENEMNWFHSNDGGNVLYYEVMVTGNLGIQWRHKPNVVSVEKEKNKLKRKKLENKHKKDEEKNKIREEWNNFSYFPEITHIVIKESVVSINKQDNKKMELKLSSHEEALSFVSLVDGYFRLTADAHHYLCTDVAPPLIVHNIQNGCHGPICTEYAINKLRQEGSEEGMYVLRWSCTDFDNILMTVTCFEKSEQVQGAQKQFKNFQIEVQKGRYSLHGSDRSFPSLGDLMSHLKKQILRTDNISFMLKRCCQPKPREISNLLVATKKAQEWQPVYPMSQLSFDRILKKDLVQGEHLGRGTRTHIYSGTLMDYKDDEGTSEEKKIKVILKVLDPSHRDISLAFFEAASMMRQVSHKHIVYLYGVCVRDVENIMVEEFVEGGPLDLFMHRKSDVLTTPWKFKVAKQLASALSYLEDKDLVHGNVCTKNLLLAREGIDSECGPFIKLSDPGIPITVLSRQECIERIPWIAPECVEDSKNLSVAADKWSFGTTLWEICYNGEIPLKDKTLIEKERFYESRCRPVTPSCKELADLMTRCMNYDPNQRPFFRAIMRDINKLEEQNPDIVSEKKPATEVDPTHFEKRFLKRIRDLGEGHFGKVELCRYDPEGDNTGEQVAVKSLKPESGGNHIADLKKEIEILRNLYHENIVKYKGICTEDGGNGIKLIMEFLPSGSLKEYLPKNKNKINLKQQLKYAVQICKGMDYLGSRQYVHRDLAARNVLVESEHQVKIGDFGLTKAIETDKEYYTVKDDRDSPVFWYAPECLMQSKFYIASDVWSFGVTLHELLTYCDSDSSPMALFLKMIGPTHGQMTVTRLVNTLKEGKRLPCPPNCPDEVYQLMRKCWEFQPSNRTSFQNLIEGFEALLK
Chain of JAK2 (O60674 whole entry, species assumed): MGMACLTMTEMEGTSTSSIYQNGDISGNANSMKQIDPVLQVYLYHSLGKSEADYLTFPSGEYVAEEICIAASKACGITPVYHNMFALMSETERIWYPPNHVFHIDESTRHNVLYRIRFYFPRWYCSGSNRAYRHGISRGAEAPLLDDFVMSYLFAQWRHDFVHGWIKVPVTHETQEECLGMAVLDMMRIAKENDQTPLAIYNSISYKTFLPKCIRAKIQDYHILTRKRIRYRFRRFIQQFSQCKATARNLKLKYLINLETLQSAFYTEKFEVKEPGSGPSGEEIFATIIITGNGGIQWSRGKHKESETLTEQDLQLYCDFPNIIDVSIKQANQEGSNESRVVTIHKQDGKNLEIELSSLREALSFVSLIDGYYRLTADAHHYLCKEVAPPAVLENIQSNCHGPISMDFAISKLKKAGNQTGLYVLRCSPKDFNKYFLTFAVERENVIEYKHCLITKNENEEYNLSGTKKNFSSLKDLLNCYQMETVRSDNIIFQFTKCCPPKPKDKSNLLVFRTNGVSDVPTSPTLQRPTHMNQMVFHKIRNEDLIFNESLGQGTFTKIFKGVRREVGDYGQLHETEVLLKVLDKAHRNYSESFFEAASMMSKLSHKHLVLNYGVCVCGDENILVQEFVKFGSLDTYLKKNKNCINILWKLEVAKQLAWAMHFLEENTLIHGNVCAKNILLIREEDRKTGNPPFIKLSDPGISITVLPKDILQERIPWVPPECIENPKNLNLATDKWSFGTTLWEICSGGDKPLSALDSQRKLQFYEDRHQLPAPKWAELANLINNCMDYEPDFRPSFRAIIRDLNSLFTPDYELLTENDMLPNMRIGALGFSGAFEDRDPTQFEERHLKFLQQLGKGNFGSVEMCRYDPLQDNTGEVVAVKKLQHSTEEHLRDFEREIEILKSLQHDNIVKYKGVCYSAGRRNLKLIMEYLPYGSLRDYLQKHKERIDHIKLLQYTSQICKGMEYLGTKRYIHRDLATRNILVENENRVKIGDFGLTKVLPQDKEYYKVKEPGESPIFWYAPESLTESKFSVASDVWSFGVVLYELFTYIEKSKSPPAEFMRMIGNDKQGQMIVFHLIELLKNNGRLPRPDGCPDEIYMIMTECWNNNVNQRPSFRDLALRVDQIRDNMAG
Chain of TYK2 (P29597 whole entry, species assumed): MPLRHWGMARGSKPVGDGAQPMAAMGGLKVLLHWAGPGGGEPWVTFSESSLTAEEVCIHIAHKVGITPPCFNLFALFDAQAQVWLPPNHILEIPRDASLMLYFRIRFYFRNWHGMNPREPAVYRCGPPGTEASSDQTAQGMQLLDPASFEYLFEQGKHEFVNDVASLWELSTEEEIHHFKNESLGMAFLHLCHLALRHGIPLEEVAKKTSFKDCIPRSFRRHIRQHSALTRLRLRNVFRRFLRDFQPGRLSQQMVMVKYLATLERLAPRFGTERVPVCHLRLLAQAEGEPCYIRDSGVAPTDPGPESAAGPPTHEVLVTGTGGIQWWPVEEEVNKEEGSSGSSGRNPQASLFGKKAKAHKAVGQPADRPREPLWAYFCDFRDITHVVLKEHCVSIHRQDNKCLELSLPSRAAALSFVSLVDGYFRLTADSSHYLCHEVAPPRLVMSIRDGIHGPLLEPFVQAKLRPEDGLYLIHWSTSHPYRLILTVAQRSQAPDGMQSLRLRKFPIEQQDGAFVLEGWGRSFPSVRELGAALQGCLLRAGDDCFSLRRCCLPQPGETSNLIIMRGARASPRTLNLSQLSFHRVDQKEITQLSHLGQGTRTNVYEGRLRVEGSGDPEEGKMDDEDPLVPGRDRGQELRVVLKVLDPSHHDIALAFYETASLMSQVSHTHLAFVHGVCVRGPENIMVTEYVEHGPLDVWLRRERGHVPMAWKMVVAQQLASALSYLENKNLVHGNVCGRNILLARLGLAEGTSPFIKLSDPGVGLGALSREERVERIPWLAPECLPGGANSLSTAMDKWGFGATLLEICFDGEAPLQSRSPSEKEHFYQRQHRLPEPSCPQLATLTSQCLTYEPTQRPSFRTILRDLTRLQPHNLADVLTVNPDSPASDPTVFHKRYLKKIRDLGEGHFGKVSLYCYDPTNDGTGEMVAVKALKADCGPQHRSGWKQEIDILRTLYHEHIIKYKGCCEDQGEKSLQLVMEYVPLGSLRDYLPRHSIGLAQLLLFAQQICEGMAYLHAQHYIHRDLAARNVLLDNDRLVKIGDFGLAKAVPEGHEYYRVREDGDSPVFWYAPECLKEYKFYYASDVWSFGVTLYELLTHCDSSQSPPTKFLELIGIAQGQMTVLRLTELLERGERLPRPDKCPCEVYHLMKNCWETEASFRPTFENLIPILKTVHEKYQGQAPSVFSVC

The term IC50 denotes the point on the concentration scale where inhibition reaches its midpoint. With `CCc1cc(O)c(F)cc1-c1cc2[nH]nc(C(=O)NC)c2c(NCCc2ccc(O)cc2)n1` [Example 4, 6-(2-ethyl-5-fluoro-4-hydroxyphenyl)-4-{[2-(4-hydroxyphenyl)ethyl]amino}-N-methyl-1H-pyrazolo[4,3-c]pyridine-3-carboxamide], the IC50 in assay [1] was determined as 1.7 nM; in assay [2], 26.6 nM; in assay [3] it was 15.3 nM.

As to `CN(c1ccc(O)cc1CNc1nc(-c2cc(F)c(O)cc2CC(F)(F)F)cc2[nH]nc(C(N)=O)c12)S(=O)(=O)c1ccccc1` [Example 42, 6-[5-fluoro-4-hydroxy-2-(2,2,2-trifluoroethyl)phenyl]-4-({5-hydroxy-2-[methyl(phenylsulfonyl)-amino]benzyl}amino)-1H-pyrazolo[4,3-c]pyridine-3-carboxamide], the IC50 worked out at 25.3 nM in assay [1], 534 nM in assay [2] and 233 nM in assay [3].

Regarding `CN(c1ccc(O)cc1CNc1nc(-c2cc(F)c(O)cc2CC(F)(F)F)nc2[nH]nc(-c3nnc(C4CCN(C(N)=O)CC4)[nH]3)c12)S(C)(=O)=O` [Example 167, 4-(5-{6-[5-Fluoro-4-hydroxy-2-(2,2,2-trifluoroethyl)phenyl]-4-({5-hydroxy-2-[methyl(methylsulfonyl)amino]benzyl}amino)-1H-pyrazolo[3,4-d]pyrimidin-3-yl}-4H-1,2,4-triazol-3-yl)piperidine-1-carboxamide], the IC50 in assay [1] came out at 4.1 nM; in assay [2], 47.4 nM; in assay [3], 310 nM.

For the molecule `Oc1cc(CC(F)(F)F)c(-c2nc(NCCC3CC3)c3cn[nH]c3n2)cc1F` [Example 152, 4-{4-[(2-cyclopropylethyl)amino]-1H-pyrazolo[3,4-d]pyrimidin-6-yl}-2-fluoro-5-(2,2,2-trifluoroethyl)phenol], the values for the IC50 in assay [1], in assay [4] and in assay [2] were 41.6 nM, 228 nM and 157 nM, respectively.

Turning to `Cc1ccc(N(C)S(C)(=O)=O)c(CNc2nc(-c3cc(F)c(O)cc3CC(F)(F)F)cc3[nH]nc(C(N)=O)c23)c1` [Example 81, 6-[5-fluoro-4-hydroxy-2-(2,2,2-trifluoroethyl)phenyl]-4-({5-methyl-2-[methyl(methylsulfonyl)-amino]benzyl}amino)-1H-pyrazolo[4,3-c]pyridine-3-carboxamide], the IC50 in assay [1] was 4.7 nM; in assay [2], 103 nM; in assay [3], 298 nM.

“N-benzyl-2-[6-(2-ethyl-4-hydroxyphenyl)-1H-pyrazolo[4,3-c]pyridin-4-yl]-1,2,3,4-tetrahydroiso-quinoline-5-carboxamide formate [Example 117]”: the IC50 in assay [2] is 41.6 nM; in assay [3], 425 nM.

Take `CNC(=O)c1n[nH]c2cc(-c3cc(F)c(O)cc3CC(F)(F)F)nc(NCc3cccnc3N(C)S(C)(=O)=O)c12` [Example 53, 6-[5-fluoro-4-hydroxy-2-(2,2,2-trifluoroethyl)phenyl]-N-methyl-4-[({2-[methyl(methylsulfonyl)amino]pyridin-3-yl}methyl)amino]-1H-pyrazolo[4,3-c]pyridine-3-carboxamide]: the IC50 was 9.7 nM in assay [1], 102 nM in assay [2] and 243 nM in assay [3].

On to `CN(c1ccccc1CNc1nc(-c2cc(F)c(O)cc2CC(F)(F)F)nc2[nH]nc(C(N)=O)c12)S(C)(=O)=O` [Example 98, 6-(5-Fluoro-4-hydroxy-2-(2,2,2-trifluoroethyl)phenyl)-4-((2-(N-methylmethylsulfonamido)benzyl)amino)-1H-pyrazolo[3,4-d]pyrimidine-3-carboxamide], for which the values for the IC50 in assay [1], in assay [2] and in assay [3] were 4.9 nM, 39.6 nM and 600 nM, respectively.

For `CCc1cc(O)ccc1-c1cc2[nH]ncc2c(N2CC(Oc3cc(C#N)ccc3Cl)C2)n1` [Example 120, 4-chloro-3-({1-[6-(2-ethyl-4-hydroxyphenyl)-1H-pyrazolo[4,3-c]pyridin-4-yl]azetidin-3-yl}oxy)benzonitrile formate], the IC50 amounted to 10.8 nM in assay [1], 128 nM in assay [4] and 89.2 nM in assay [2].

Regarding `CNC(=O)c1n[nH]c2cc(-c3cc(F)c(O)cc3C3CC3)nc(NCc3cccnc3N(C)S(C)(=O)=O)c12` [Example 49, 6-(2-cyclopropyl-5-fluoro-4-hydroxyphenyl)-N-methyl-4-[({2-[methyl(methylsulfonyl)amino]pyridin-3-yl}methyl)amino]-1H-pyrazolo[4,3-c]pyridine-3-carboxamide], the half-maximal inhibitory concentration (IC50) in assay [1] is 78 nM; in assay [4] it was 181 nM; in assay [2], 248 nM.

`CCc1cc(O)c(F)cc1-c1cc2[nH]ncc2c(N(CCc2ccc(OC)c(OC)c2)Cc2ccccc2N(C)S(C)(=O)=O)n1` [Example 129, N-[2-({[2-(3,4-dimethoxyphenyl)ethyl][6-(2-ethyl-5-fluoro-4-hydroxyphenyl)-1H-pyrazolo[4,3-c]pyridin-4-yl]amino}methyl)phenyl]-N-methylmethanesulfonamide hydrochloride]: the IC50 in assay [1] was determined as 11.6 nM; in assay [2], 180 nM; in assay [3], 56.6 nM.

For `CS(=O)(=O)N(CCO)c1ccccc1CNc1nc(-c2cc(F)c(O)cc2CC(F)(F)F)nc2[nH]nc(C(N)=O)c12` [Example 101, 6-(5-fluoro-4-hydroxy-2-(2,2,2-trifluoroethyl)phenyl)-4-((2-(N-(2-hydroxyethyl)methylsulfonamido)benzyl)amino)-1H-pyrazolo[3,4-d]pyrimidine-3-carboxamide], the IC50 in assay [1] is 10.5 nM; in assay [2], 51.1 nM.

In the case of `CCc1cc(O)ccc1-c1cc2[nH]ncc2c(NCc2ccccc2N(C)S(C)(=O)=O)n1` [Example 125, N-[2-({[6-(2-Ethyl-4-hydroxyphenyl)-1H-pyrazolo[4,3-c]pyridin-4-yl]amino}methyl)phenyl]-N-methylmethanesulfonamide hydrochloride], the IC50 in assay [1] was determined as 0.2 nM; in assay [2] it was 4.4 nM; in assay [3], 5.6 nM.

Turning to `CCCCNc1nc(-c2cc(F)c(O)cc2CC(F)(F)F)nc2[nH]ncc12` [Example 154, 4-[4-(butylamino)-1H-pyrazolo[3,4-d]pyrimidin-6-yl]-2-fluoro-5-(2,2,2-trifluoroethyl)phenol], the results for the IC50 in assay [1], in assay [2] and in assay [3] were 77.6 nM, 228 nM and 5140 nM, respectively.

With `Oc1cc(CC(F)(F)F)c(-c2nc(NCC3CC3)c3cn[nH]c3n2)cc1F` [Example 151, 4-{4-[(cyclopropylmethyl)-amino]-1H-pyrazolo[3,4-d]pyrimidin-6-yl}-2-fluoro-5-(2,2,2-trifluoroethyl)phenol], the IC50 in assay [1] turned out to be 33.9 nM; in assay [2], 125 nM; in assay [3], 2980 nM.

Turning to `CNC(=O)c1n[nH]c2cc(-c3cc(F)c(O)cc3CC(F)(F)F)nc(NCc3ccccc3CS(N)(=O)=O)c12` [Example 64, 6-[5-fluoro-4-hydroxy-2-(2,2,2-trifluoroethyl)phenyl]-N-methyl-4-{[2-(sulfamoylmethyl)benzyl]amino}-1H-pyrazolo[4,3-c]pyridine-3-carboxamide], the values for the concentration for half-maximal inhibition (IC50) in assay [1], in assay [2] and in assay [3] were 3.3 nM, 36.9 nM and 153 nM, respectively.

Regarding `CCc1cc(O)c(F)cc1-c1cc2[nH]nc(C(=O)NC)c2c(NCc2ccc(O)cc2N(C)S(C)(=O)=O)n1` [Example 29, 6-(2-Ethyl-5-fluoro-4-hydroxyphenyl)-4-({4-hydroxy-2-[methyl(methylsulfonyl)amino]benzyl}amino)-N-methyl-1H-pyrazolo[4,3-c]pyridine-3-carboxamide], the 50% inhibitory concentration (IC50) in assay [1] worked out at 1.5 nM; in assay [2] it was 33.2 nM; in assay [3] it was 19 nM.

As to `CNC(=O)c1n[nH]c2cc(-c3cc(F)c(O)cc3CC(F)(F)F)nc(NCc3nccnc3N(C)S(=O)(=O)c3ccccc3)c12` [Example 44, 6-[5-fluoro-4-hydroxy-2-(2,2,2-trifluoroethyl)phenyl]-N-methyl-4-[({3-[methyl(phenylsulfonyl)amino]pyrazin-2-yl}methyl)amino]-1H-pyrazolo[4,3-c]pyridine-3-carboxamide], the IC50 in assay [1] was 25.8 nM; in assay [2], 293 nM; in assay [3], 999 nM.

For `CCN(c1ccccc1CNc1nc(-c2cc(F)c(O)cc2CC(F)(F)F)cc2[nH]nc(C(N)=O)c12)S(=O)(=O)CC` [Example 82, 4-((2-(N-ethylethylsulfonamido)benzyl)amino)-6-(5-fluoro-4-hydroxy-2-(2,2,2-trifluoroethyl)phenyl)-1H-pyrazolo[4,3-c]pyridine-3-carboxamide], the figures for the IC50 in assay [1], in assay [2] and in assay [3] were 13.7 nM, 313 nM and 121 nM, respectively.

On to `CNC(=O)c1n[nH]c2cc(-c3cc(F)c(O)cc3C3CC3)nc(NCc3ccccc3N(C)S(C)(=O)=O)c12` [Example 37, 6-(2-cyclopropyl-5-fluoro-4-hydroxyphenyl)-N-methyl-4-({2-[methyl(methyl-sulfonyl)amino]benzyl}amino)-1H-pyrazolo[4,3-c]pyridine-3-carboxamide], for which the IC50 was determined as 5 nM in assay [1], 52 nM in assay [2] and 169 nM in assay [3].

Values taken from US9518052B2, “Pyrazolopyridines and pyrazolopyrimidines” (Pfizer Inc., priority 2014, dated 2016).
